Data reported in patent publication US20210198277A1, “AMINE-SUBSTITUTED ARYL OR HETEROARYL COMPOUNDS” (Epizyme, Inc., priority 2016, published 2021).

biological target: T1, EHMT2 (Homo sapiens, UniProt Q96KQ7); test: MDA-MB-231 H3K9me2 in-cell Western assay (EHMT2 ICW); format: cell-based; conditions: Table III; MDA-MB-231 H3K9me2 in-cell Western; read-out: EHMT2 ICW (IC50 μM)
T1 construct: host or cells: MDA-MB-231
T1 sequence (Q96KQ7 1-1210): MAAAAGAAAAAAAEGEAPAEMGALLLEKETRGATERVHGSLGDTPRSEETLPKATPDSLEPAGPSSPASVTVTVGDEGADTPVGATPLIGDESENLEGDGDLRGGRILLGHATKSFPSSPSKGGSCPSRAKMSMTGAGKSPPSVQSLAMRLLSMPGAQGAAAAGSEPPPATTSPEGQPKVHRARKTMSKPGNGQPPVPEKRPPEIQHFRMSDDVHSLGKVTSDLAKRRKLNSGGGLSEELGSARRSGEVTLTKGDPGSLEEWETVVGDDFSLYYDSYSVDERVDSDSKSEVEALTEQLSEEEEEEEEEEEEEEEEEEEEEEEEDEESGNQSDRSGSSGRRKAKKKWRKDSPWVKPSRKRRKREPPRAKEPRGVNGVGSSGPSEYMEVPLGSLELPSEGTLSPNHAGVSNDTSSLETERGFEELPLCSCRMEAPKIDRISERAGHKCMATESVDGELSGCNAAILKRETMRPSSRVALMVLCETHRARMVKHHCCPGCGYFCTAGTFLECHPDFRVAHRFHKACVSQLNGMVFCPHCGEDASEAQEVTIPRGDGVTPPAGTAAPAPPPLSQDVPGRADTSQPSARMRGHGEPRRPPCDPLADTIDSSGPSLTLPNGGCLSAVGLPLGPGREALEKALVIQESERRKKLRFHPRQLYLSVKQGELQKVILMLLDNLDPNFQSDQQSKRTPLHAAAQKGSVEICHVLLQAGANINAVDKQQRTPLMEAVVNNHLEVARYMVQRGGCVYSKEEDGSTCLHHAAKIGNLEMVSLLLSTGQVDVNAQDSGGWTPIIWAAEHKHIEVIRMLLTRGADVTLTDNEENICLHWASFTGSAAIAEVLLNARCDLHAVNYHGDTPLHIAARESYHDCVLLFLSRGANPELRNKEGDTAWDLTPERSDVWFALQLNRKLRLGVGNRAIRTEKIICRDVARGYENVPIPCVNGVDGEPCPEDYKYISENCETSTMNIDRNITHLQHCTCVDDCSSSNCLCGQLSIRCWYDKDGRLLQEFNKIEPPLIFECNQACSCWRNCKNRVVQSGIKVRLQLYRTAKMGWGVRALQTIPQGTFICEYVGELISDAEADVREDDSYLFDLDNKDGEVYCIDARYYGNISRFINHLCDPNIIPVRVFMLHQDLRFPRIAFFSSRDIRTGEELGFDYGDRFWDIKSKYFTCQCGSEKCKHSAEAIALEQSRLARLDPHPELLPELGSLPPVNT
Summary of the method: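 For 48 h at 37 °C, breast cancer MDA-MB-231 cells were incubated with compound, then fixed and immunostained for H3K9me2, with DRAQ5 used for normalisation. Each well's signal ratio yielded percent inhibition, and IC50 values were derived by fitting a four-parameter curve.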

| SMILES | IC50 |
| --- | --- |
| CNc1cc(C)nc(Nc2cccc(OCCCN3CCCC3)c2)n1 [Compound 391] | 1 to 10 µM |
| COc1ccc(Nc2nccc(NCC(F)(F)F)n2)cc1OCCCN1CCCC1 [Compound 392] | 1 to 10 µM |
| CCNC(=O)c1cccc(Nc2nccc(NC)n2)c1 [Compound 394] | > 10 µM |
| CCNC(=O)c1cc(Nc2nccc(NC)n2)ccc1OC [Compound 395] | > 10 µM |
| CCNC(=O)c1cc(Nc2nccc(NC)n2)ccc1Cl [Compound 396] | > 10 µM |
| CNc1ccnc(Nc2cccc(N3CCC(N(C)C)C3)c2)n1 (centres unmarked) [Compound 397] | > 10 µM |
| CNc1ccnc(Nc2ccc(Cl)c(OCCCN3CCCC3)c2)n1 [Compound 398] | 1 to 10 µM |
| CNc1ccnc(Nc2cccc(N3CCC(N)C3)c2)n1 (centres unmarked) [Compound 400] | > 10 µM |
| COc1ccc(Nc2ccc3cn(C)nc3n2)cc1OCCCN1CCCC1 [Compound 402] | > 10 µM |
| CNc1ccnc(Nc2ccc3cn(CCN(C)C)nc3c2)n1 [Compound 404, N^2-(2-(2-(dimethylamino)ethyl)-2H-indazol-6-yl)-N^4-methylpyrimidine-2,4-diamine] | > 10 µM |
| CNc1ccnc(Nc2ccc3cn(CCCN(C)C)nc3c2)n1 [Compound 405] | > 10 µM |
| CNc1ccnc(Nc2ccc(OC)c(OCC3CCN(CCOC)C3)c2)n1 (centres unmarked) [Compound 410, N^2-(4-methoxy-3-((1-(2-methoxyethyl)pyrrolidin-3-yl)methoxy)phenyl)-N^4-methylpyrimidine-2,4-diamine] | > 10 µM |
| CNc1ccnc(Nc2ccc(OC)c(OCC3CCCN(C)C3)c2)n1 (centres unmarked) [Compound 412, N^2-(4-methoxy-3-((1-methylpiperidin-3-yl)methoxy)phenyl)-N^4-methylpyrimidine-2,4-diamine] | 1 to 10 µM |
| CCCN1CCC(COc2cc(Nc3nccc(NC)n3)ccc2OC)C1 (centres unmarked) [Compound 420, N^2-(4-methoxy-3-((1-propylpyrrolidin-3-yl)methoxy)phenyl)-N^4-methylpyrimidine-2,4-diamine] | 1 to 10 µM |
| CNc1cc(C)nc(Nc2ccc(OC)c(COC3CCN(C)C3)c2)n1 (centres unmarked) [Compound 421, N^2-(4-methoxy-3-(((1-methylpyrrolidin-3-yl)oxy)methyl)phenyl)-N^4,6-dimethylpyrimidine-2,4-diamine] | 1 to 10 µM |
| CNc1ccnc(Nc2ccc(OC)c(OCC3CCN(CC4CC4)C3)c2)n1 (centres unmarked) [Compound 422, N^2-(3-((1-(cyclopropylmethyl)pyrrolidin-3-yl)methoxy)-4-methoxyphenyl)-N^4-methylpyrimidine-2,4-diamine] | 1 to 10 µM |

Results, then the molecule that gave them:

| IC50 | SMILES |
| --- | --- |
| 0.1 to 1 µM | CNc1ccnc(Nc2ccc(OC)c(OCC3CCN(C)C3)c2)n1 (centres unmarked) [Compound 393] |
| 0.1 to 1 µM | CNc1ccnc(Nc2ccc(OC)c(COC3CCN(C)C3)c2)n1 (centres unmarked) [Compound 407, N^2-(4-methoxy-3-(((1-methylpyrrolidin-3-yl)oxy)methyl)phenyl)-N^4-methylpyrimidine-2,4-diamine] |
| 0.1 to 1 µM | CCN1CCC(COc2cc(Nc3nccc(NC)n3)ccc2OC)C1 (centres unmarked) [Compound 408, N^2-(3-((1-ethylpyrrolidin-3-yl)methoxy)-4-methoxyphenyl)-N^4-methylpyrimidine-2,4-diamine] |
| 0.1 to 1 µM | CNc1ccnc(Nc2ccc(OC)c(OCC3CCN(C(C)C)C3)c2)n1 (centres unmarked) [Compound 409, N^2-(3-((1-isopropylpyrrolidin-3-yl)methoxy)-4-methoxyphenyl)-N^4-methylpyrimidine-2,4-diamine] |
| 0.1 to 1 µM | CNc1ccnc(Nc2ccc(OC)c(OCC3CCN(C4CC4)C3)c2)n1 (centres unmarked) [Compound 411, N^2-(3-((1-cyclopropylpyrrolidin-3-yl)methoxy)-4-methoxyphenyl)-N^4-methylpyrimidine-2,4-diamine] |
| 0.1 to 1 µM | CNc1cc(C)nc(Nc2ccc(OC)c(OCC3CCCN(C)C3)c2)n1 (centres unmarked) [Compound 413, N^2-(4-methoxy-3-((1-methylpiperidin-3-yl)methoxy)phenyl)-N^4,6-dimethylpyrimidine-2,4-diamine] |
| 0.1 to 1 µM | CNc1ccnc(Nc2ccc(OC)c(OCCCN3CC(O)C3)c2)n1 [Compound 414, 1-(3-(2-methoxy-5-((4-(methylamino)pyrimidin-2-yl)amino)phenoxy)propyl)azetidin-3-ol] |
